Reference: patent US7790711B2, “Inhibitors of 11β-Hydroxysteroid Dehydrogenase” (Hoffmann-La Roche Inc., priority 2007, dated 2010)

Molecular target: T1, human 11betaHSD1 (Homo sapiens, UniProt P28845)
T1 construct: stably transfected with full-length human 11betaHSD1 cDNA; expressed in transfected cells
Experiment: in vitro inhibition of 11β-HSD1 in H4IIE cells stably transfected with human 11betaHSD1 (cortisone to cortisol, ELISA)
Assay type: cell-based
Settings: H4IIE cells stably transfected with full-length human 11betaHSD1 cDNA; 200 nM cortisone, 2 hours at 37° C.; cortisol by competitive ELISA
Experimental: H4IIE cells stably transfected with full-length human 11betaHSD1 cDNA were propagated and expanded in DMEM high glucose media (Invitrogen Cat# 11995-065), supplemented with 10% FCS (Invitrogen Cat# 10082-147), 100 units/mL and 100 μg/mL pen/strep (Invitrogen Cat#15140-122), and geneticin (800 μg/mL). One day prior to assay, cells were released from flasks using trypsin/EDTA, centrifuged, and washed with plating media (DMEM high glucose, without phenol red; Invitrogen Cat# 21063-029, supplemented with 2% charcoal stripped FCS; Gemini Cat# 100-119). From a 500,000 cells/mL suspension in plating media, 200 μL of cells were seeded into each well of a 96-well coated plate (BioCoat Cat#356461) and cultured overnight at 37° C. The following day, serially diluted 11betaHSD1 inhibitor compounds dissolved in DMSO were added to DMEM with BSA (2 mg/mL final). The final DMSO concentration was 1%. Media was aspirated from plates, and compounds in media were added to each well. The plates were incubated at 37° C. for 1 hour to allow for cellular uptake of compounds. 10 μL of substrate (cortisone) was then added to each well (200 nM final concentration) and incubated for 2 hours at 37° C. Plates were then transferred to ice and 80 μL of media transferred to a 96-well plate and stored at −30° C.
Quantitation of cortisol in cell media was performed by competitive ELISA using ELISA-Light (Tropix Cat# T10206/EL100S4), anti-cortisol EIA antibody (Assay Designs, Inc. Cat#80-1148), and cortisol-enzyme conjugate (Assay Designs, Inc. Cat# 80-1147). 384-well plates (Falcon Cat#353988) were precoated with anti-mouse IgG (Sigma Cat# M-1397) suspended in 0.9% NaCl (5 mg/mL), 50 μL per well, overnight at 4° C. Plates were washed with PBS, 0.1% Tween-20, then washed with PBS alone. Plates were blocked with Blocking Buffer (Tropix Cat# AI075) for 2 hours at room temperature. The plates were then washed as previously described. Assay samples were thawed, diluted 1:8 in DMEM, 2 mg/mL BSA, 1% DMSO, and 24 μL was transferred to wells of a pre-coated 384-well plate, as well as varying amounts of cortisol standard. To each well, 12 μL of cortisol-conjugate and 12 μL of anti-cortisol EIA antibody were added and incubated 2 hrs at room temperature on a orbital plate shaker. The wells were then emptied by inversion, then washed three times with 100 μL of PBS, 0.05% Tween-20, and then 2 times with 100 μL of Assay Buffer (Tropix). 60 μL of CDP-STAR (Tropix) was added to each well and incubated 10 minutes at room temperature. Chemiluminescence was measured using a Victor V Reader (Perkin Elmer). Cortisol in each sample was interpolated from a standard curve generated with known amounts of cortisol. IC50 values were calculated using the curve fitting software XLFit4 (IDBS).

T1 sequence (P28845 whole entry): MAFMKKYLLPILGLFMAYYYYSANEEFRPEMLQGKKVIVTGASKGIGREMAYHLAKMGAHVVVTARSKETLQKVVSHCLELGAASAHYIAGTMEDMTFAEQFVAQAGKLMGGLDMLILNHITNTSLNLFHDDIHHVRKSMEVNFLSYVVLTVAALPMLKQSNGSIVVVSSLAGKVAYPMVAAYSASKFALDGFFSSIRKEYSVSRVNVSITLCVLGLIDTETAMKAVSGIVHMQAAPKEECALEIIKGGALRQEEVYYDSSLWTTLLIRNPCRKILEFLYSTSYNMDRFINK

Compound `CC(C)Nc1c(C(=O)NC2C3CC4CC(C3)CC2C4)cnn1-c1ccccc1` (stereo not drawn) [Example 1, 5-Isopropylamino-1-phenyl-1H-pyrazole-4-carboxylic acid adamantan-2-ylamide] has an IC50 of 1.3 nM.
`O=C(NC1C2CC3CC(C2)CC1C3)c1cnn(-c2ccccc2)c1NCc1ccccc1` (stereo not drawn) [Example 2, 5-Benzylamino-1-phenyl-1H-pyrazole-4-carboxylic acid adamantan-2-ylamide] gave an IC50 of 14 nM.
`O=C(NC1C2CC3CC(C2)CC1C3)c1cnn(-c2ccccc2)c1NCc1cccnc1` (stereo not drawn) [Example 3, 1-Phenyl-5-[(pyridin-3-ylmethyl)-amino]-1H-pyrazole-4-carboxylic acid adamantan-2-ylamide] showed an IC50 of 350 nM.
For `O=C(NC1C2CC3CC(C2)CC1C3)c1cnn(-c2ccccc2)c1NCC1CC1` (stereo not drawn) [Example 4, 5-(Cyclopropylmethyl-amino)-1-phenyl-1H-pyrazole-4-carboxylic acid adamantan-2-ylamide], the IC50 was 1.9 nM.
`O=C(NC1C2CC3CC(C2)CC1C3)c1cnn(-c2ccccc2)c1NC1CCCCC1` (stereo not drawn) [Example 5, 5-Cyclohexylamino-1-phenyl-1H-pyrazole-4-carboxylic acid adamantan-2-ylamide] gave an IC50 of 4.7 nM.
`O=C(NC1C2CC3CC(C2)CC1C3)c1cnn(-c2ccccc2)c1NC1CCC1` (stereo not drawn) [Example 6, 5-Cyclobutylamino-1-phenyl-1H-pyrazole-4-carboxylic acid adamantan-2-ylamide] was tested, and the IC50 was 7.6 nM.
`CC1CCC(C)N1c1c(C(=O)NC2C3CC4CC(C3)CC2C4)cnn1-c1ccccc1` (stereo not drawn) [Example 7, 5-(2,5-Dimethyl-pyrrolidin-1-y1)-1-phenyl-1H-pyrazole-4-carboxylic acid adamantan-2-ylamide] showed an IC50 of 4 nM.
Compound `CC1CCCN1c1c(C(=O)NC2C3CC4CC(C3)CC2C4)cnn1-c1ccccc1` (stereo not drawn) [Example 8, 5-(2-Methyl-pyrrolidin-1-y1)-1-phenyl-1H-pyrazole-4-carboxylic acid adamantan-2-ylamide] has an IC50 of 1.3 nM.
For `CC1CCCN(c2c(C(=O)NC3C4CC5CC(C4)CC3C5)cnn2-c2ccccc2)C1` (stereo not drawn) [Example 9, 5-(3-Methyl-piperidin-1-y1)-1-phenyl-1H-pyrazole-4-carboxylic acid adamantan-2-ylamide], the IC50 was 3 nM.
Compound `CN(Cc1ccccc1)c1c(C(=O)NC2C3CC4CC(C3)CC2C4)cnn1-c1ccccc1` (stereo not drawn) [Example 10, 5-(Benzyl-methyl-amino)-1-phenyl-1H-pyrazole-4-carboxylic acid adamantan-2-ylamide] has an IC50 of 9.1 nM.
For `CN(CCc1ccccc1)c1c(C(=O)NC2C3CC4CC(C3)CC2C4)cnn1-c1ccccc1` (stereo not drawn) [Example 11, 5-(Methyl-phenethyl-amino)-1-phenyl-1H-pyrazole-4-carboxylic acid adamantan-2-ylamide], the IC50 was 3.7 nM.
`CC1CN(c2c(C(=O)NC3C4CC5CC(C4)CC3C5)cnn2-c2ccccc2)CC(C)O1` (stereo not drawn) [Example 12, 5-(2,6-Dimethyl-morpholin-4-y1)-1-phenyl-1H-pyrazole-4-carboxylic acid adamantan-2-ylamide] showed an IC50 of 3.7 nM.
`O=C(NC1C2CC3CC(C2)CC1C3)c1cnn(-c2ccccc2)c1N1CCCC1` (stereo not drawn) [Example 13, 1-Phenyl-5-pyrrolidin-1-y1-1H-pyrazole-4-carboxylic acid adamantan-2-ylamide] showed an IC50 of 0.55 nM.
`O=C(NC1C2CC3CC(C2)CC1C3)c1cnn(-c2ccccc2)c1N1CCCCCC1` (stereo not drawn) [Example 14, 5-Azepan-1-y1-1-phenyl-1H-pyrazole-4-carboxylic acid adamantan-2-ylamide] showed an IC50 of 1 nM.
In the case of `O=C(NC1C2CC3CC(C2)CC1C3)c1cnn(-c2ccccc2)c1N1CCOCC1` (stereo not drawn) [Example 15, 5-Morpholin-4-y1-1-phenyl-1H-pyrazole-4-carboxylic acid adamantan-2-ylamide], the IC50 is reported as 3 nM.
In the case of `O=C(NC1C2CC3CC(C2)CC1C3)c1cnn(-c2ccccc2)c1N1CCCC(CO)C1` (stereo not drawn) [Example 16, 5-(3-Hydroxymethyl-piperidin-1-y1)-1-phenyl-1H-pyrazole-4-carboxylic acid adamantan-2-ylamide], the IC50 is reported as 6.4 nM.
`O=C(NC1C2CC3CC(C2)CC1C3)c1cnn(-c2ccccc2)c1N1CCC[C@H]1CO` (stereo partly drawn) [Example 17, 5-((S)-2-Hydroxymethyl-pyrrolidin-1-y1)-1-phenyl-1H-pyrazole-4-carboxylic acid adamantan-2-ylamide] showed an IC50 of 42 nM.
For `O=C(NC1C2CC3CC(C2)CC1C3)c1cnn(-c2ccccc2)c1N1CCC(O)CC1` (stereo not drawn) [Example 18, 5-(4-Hydroxy-piperidin-1-y1)-1-phenyl-1H-pyrazole-4-carboxylic acid adamantan-2-ylamide], the IC50 was 3 nM.
Work on `O=C(NC1C2CC3CC(C2)CC1C3)c1cnn(-c2ccccc2)c1N1CCCC(O)C1` (stereo not drawn) [Example 19, 5-(3-Hydroxy-piperidin-1-y1)-1-phenyl-1H-pyrazole-4-carboxylic acid adamantan-2-ylamide] yielded an IC50 of 9.2 nM.
Compound `O=C(NC1C2CC3CC(C2)CC1C3)c1cnn(-c2ccccc2)c1N1CCC(O)C1` (stereo not drawn) [Example 20, 5-(3-Hydroxy-pyrrolidin-1-y1)-1-phenyl-1H-pyrazole-4-carboxylic acid adamantan-2-ylamide] has an IC50 of 13 nM.
With `CC(O)CNc1c(C(=O)NC2C3CC4CC(C3)CC2C4)cnn1-c1ccccc1` (stereo not drawn) [Example 21, 5-(2-Hydroxy-propylamino)-1-phenyl-1H-pyrazole-4-carboxylic acid adamantan-2-ylamide] the IC50 was 41 nM.
In the case of `O=C(NC1C2CC3CC(C2)CC1C3)c1cnn(-c2ccccc2)c1NCCO` (stereo not drawn) [Example 22, 5-(2-Hydroxy-ethylamino)-1-phenyl-1H-pyrazole-4-carboxylic acid adamantan-2-ylamide], the IC50 is reported as 21 nM.
Compound `O=C(NC1C2CC3CC(C2)CC1C3)c1cnn(-c2ccccc2)c1NCCCO` (stereo not drawn) [Example 23, 5-(3-Hydroxy-propylamino)-1-phenyl-1H-pyrazole-4-carboxylic acid adamantan-2-ylamide] has an IC50 of 55 nM.
`O=C(NC1C2CC3CC(C2)CC1C3)c1cnn(-c2ccccc2)c1NCCCCO` (stereo not drawn) [Example 24, 5-(4-Hydroxy-butylamino)-1-phenyl-1H-pyrazole-4-carboxylic acid adamantan-2-ylamide] gave an IC50 of 7.5 nM.
`O=C(NC1C2CC3CC(C2)CC1C3)c1cnn(-c2ccccc2)c1NCC1CCCO1` (stereo not drawn) [Example 25, 1-Phenyl-5-[(tetrahydro-furan-2-ylmethyl)-amino]-1H-pyrazole-4-carboxylic acid adamantan-2-ylamide] showed an IC50 of 2 nM.
With `CN(CCO)c1c(C(=O)NC2C3CC4CC(C3)CC2C4)cnn1-c1ccccc1` (stereo not drawn) [Example 26, 5-[(2-Hydroxy-ethyl)-methyl-amino]-1-phenyl-1H-pyrazole-4-carboxylic acid adamantan-2-ylamide] the IC50 was 14 nM.
`COCCCNc1c(C(=O)NC2C3CC4CC(C3)CC2C4)cnn1-c1ccccc1` (stereo not drawn) [Example 27, 5-(3-Methoxy-propylamino)-1-phenyl-1H-pyrazole-4-carboxylic acid adamantan-2-ylamide] showed an IC50 of 1.4 nM.
